Starred links: 1 amine or outer side, 2 acyl side, 3 side chain; linkers in the order of their positions; H or OH if unused. Positions of bridges follow the written chain, without caps; N, C: chain ends. Non-standard residues stand in square brackets, D forms with d. Residues, ends and D or L forms follow the SMILES beside them. *: point of attachment. X6 = O=C(CCC(=O)[*:3])N[C@@H](CS[*:2])C(=O)[*:1]; Trp(7-Me) = Cc1cccc2c(C[C@H](N)C(=O)O)c[nH]c12; X1 = O=C(CCCCN[*:3])N[C@@H](CS[*:2])C(=O)[*:1]; Trp(1-Me) = Cn1cc(C[C@H](N)C(=O)O)c2ccccc21; αMeLys(Me2) = CN(C)CCCC[C@](C)(N)C(=O)O; 2Nal = N[C@@H](Cc1ccc2ccccc2c1)C(=O)O; d2Nal = N[C@H](Cc1ccc2ccccc2c1)C(=O)O; 3Pal = N[C@@H](Cc1cccnc1)C(=O)O; Lys(Me) = CNCCCC[C@H](N)C(=O)O; αMeL = CC(C)C[C@](C)(N)C(=O)O; Suc = O=C(CCC(=O)[*:2])[*:1]; Thp = NC1(C(=O)O)CCOCC1; Me2NCH2CH2 = CN(C)CC*; Aib = CC(C)(N)C(=O)O; Sar = CNCC(=O)O
What was measured:
[1] = target: T1, human interleukin-23 receptor (recombinant human IL-23R-Fc chimera) (Homo sapiens, UniProt Q5VWK5); assay: Human ELISA IL23/IL23R (assay for specific human IL23R antagonists); type: binding; details: Table 10; read-out: Human ELISA IL23/IL23R IC50
T1 construct: Fc (IgG Fc fusion)
Outline: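 Competition format: peptide dilutions compete for IL23R-Fc chimera (0.1 μg/ml final, 60 min, room temperature) binding to immobilized human IL23 coated at […] overnight at 4 °C. Read-out is fluorogenic HRP signal from goat anti-hu-IgG1 detecting captured receptor.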

[2] = system: IL-23 induced STAT3 signaling in HEK-Blue™ IL-23 cells; assay: IL-23 induced STAT3 signaling in HEK-Blue IL-23 cells (SEAP reporter); type: cell-based; details: human IL23 0.25 ng/ml, read-out: pSTAT3
Outline: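 Secreted SEAP, read at OD 620-655 nm after 45 min QUANTI-Blue development, reports STAT3 activation. Beforehand, cells were exposed to peptide dilutions for 60 min at 37 °C and then to 0.25 ng/ml final human IL-23 overnight, at 10,000 cells/well.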

Pancreatin = assay: Protease stability in simulated intestinal fluid (Pancreatin-SIF, FaSSIF); type: in vitro ADME; details: 1 μM peptide, 37° C.; for remaining at 1 h, 1 µM: 60 min, read-out: FaSSIF 60 (min), remaining percent of peptide; for remaining at 2 h, 1 µM: 120 min, read-out: FaSSIF 120 (min), remaining percent of peptide; for remaining at 4 h, 1 µM: 240 min, read-out: FaSSIF 240 (min), remaining percent of peptide
Outline: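 LC-MS/MS peak areas at 0, 60, 120 and 240 min, normalised to time 0 as 100%, give percent remaining. Reactions used 1 μM final peptide at 37° C in pancreatin-SIF (1 mg pancreatin in 10 mL SIF concentrate) and were stopped with ethanol containing 0.1% HCOOH.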

Pepsin = system: T2, Pepsin; assay: Protease stability in simulated gastric fluid (Pepsin-SGF, FaSSGF); type: in vitro ADME; details: simulated gastric fluid with pepsin (Pepsin-SGF), 60 min, 1 μM peptide, 37° C., read-out: FaSSGF 60 (min), remaining percent of peptide
T2 construct: purchased Merck Millipore
Outline: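 LCMS/MS peak areas, normalised to the time-0 sample as 100%, give percent remaining. Conditions: 37° C incubation of 1 μM final peptide in simulated gastric fluid with pepsin; ethanol/0.1% HCOOH quench at 0, 60, 120, 240 min.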

Row | Structure (SMILES) | IC50 [1] | remaining at 1 h, 1 µM (Pancreatin) | remaining at 2 h, 1 µM (Pancreatin) | remaining at 4 h, 1 µM (Pancreatin) | remaining at 1 h, 1 µM (Pepsin) | IC50 [2]
1 | CC(=O)NCCCC[C@@H]1NC(=O)[C@H](Cc2cn(C)c3ccccc23)NC(=O)[C@@H](NC(C)=O)CCCCNC(=O)[C@@H]2CSSC[C@H](NC1=O)C(=O)N[C@@H](Cc1ccc(OCCN(C)C)cc1)C(=O)N[C@@H](Cc1ccc3ccccc3c1)C(=O)NC1(CCOCC1)C(=O)N[C@H](C(=O)N[C@@H](CC(N)=O)C(=O)N[C@@H](Cc1cccnc1)C(=O)N(C)CC(N)=O)CCC(=O)NCCCCC(=O)N2 [compound 126] (Ac-K[Trp(1-Me)]K(Ac)CY(Me2NCH2CH2)[2Nal][Thp]EN[3Pal][Sar]-NH2; linker 1-4-8 via X1) | 0.56 nM | 90% | 87% | 83% | 80% | 0.11 nM
2 | CC(=O)NCCCC[C@@H]1NC(=O)[C@H](Cc2c[nH]c3c(C)cccc23)NC(=O)[C@H]([C@@H](C)O)NC(=O)[C@H](CC(N)=O)NC(=O)[C@@H]2CSSC[C@H](NC1=O)C(=O)N[C@@H](Cc1ccc(OCCN(C)C)cc1)C(=O)N[C@@H](Cc1ccc3ccccc3c1)C(=O)N[C@@](C)(CCCCN(C)C)C(=O)N[C@H](C(=O)N[C@@H](CC(N)=O)C(=O)N[C@@H](Cc1cccnc1)C(=O)N(C)CC(N)=O)CCCCNC(=O)CCC(=O)N2 [compound 151] (CNT[Trp(7-Me)]K(Ac)CY(Me2NCH2CH2)[2Nal][αMeLys(Me2)]KN[3Pal][Sar]-NH2; disulfide 1-6; linker N-10 via Suc) | 0.61 nM | 97% | 97% | 96% | 101% | 0.06 nM
3 | Cc1cccc2c(C[C@@H]3NC(=O)[C@H]([C@@H](C)O)NC(=O)[C@H](CC(N)=O)NC(=O)[C@@H]4CSSC[C@H](NC(=O)[C@H](CCC(N)=O)NC3=O)C(=O)N[C@@H](Cc3ccc(OCCN(C)C)cc3)C(=O)N[C@@H](Cc3ccc5ccccc5c3)C(=O)N[C@@](C)(CCCCN(C)C)C(=O)N[C@H](C(=O)N[C@@H](CC(N)=O)C(=O)N[C@@H](Cc3cccnc3)C(=O)N(C)CC(N)=O)CCCCNC(=O)CCC(=O)N4)c[nH]c12 [compound 152] (CNT[Trp(7-Me)]QCY(Me2NCH2CH2)[2Nal][αMeLys(Me2)]KN[3Pal][Sar]-NH2; disulfide 1-6; linker N-10 via Suc) | 0.38 nM | 100% | 100% | 98% | 99% | 0.04 nM
4 | Cc1cccc2c(C[C@@H]3NC(=O)[C@H]([C@@H](C)O)NC(=O)[C@H](CC(N)=O)NC(=O)[C@@H]4CSSC[C@H](NC(=O)[C@H](CC(C)C)NC3=O)C(=O)N[C@@H](Cc3ccc(OCCN(C)C)cc3)C(=O)N[C@@H](Cc3ccc5ccccc5c3)C(=O)N[C@@](C)(CCCCN(C)C)C(=O)N[C@H](C(=O)N[C@@H](CC(N)=O)C(=O)N[C@@H](Cc3cccnc3)C(=O)N(C)CC(N)=O)CCCCNC(=O)CCC(=O)N4)c[nH]c12 [compound 154] (CNT[Trp(7-Me)]LCY(Me2NCH2CH2)[2Nal][αMeLys(Me2)]KN[3Pal][Sar]-NH2; disulfide 1-6; linker N-10 via Suc) | 0.52 nM | 99% | 97% | 96% | 96% | 0.08 nM
5 | Cc1cccc2c(C[C@@H]3NC(=O)[C@H]([C@@H](C)O)NC(=O)[C@H](CC(N)=O)NC(=O)[C@@H]4CSSC[C@H](NC(=O)[C@H](CC(C)C)NC3=O)C(=O)N[C@@H](Cc3ccc(OCCN(C)C)cc3)C(=O)N[C@@H](Cc3ccc5ccccc5c3)C(=O)N[C@@](C)(CCCCN(C)C)C(=O)N[C@H](C(=O)N[C@@H](C)C(=O)N[C@@H](Cc3cccnc3)C(=O)N(C)CC(N)=O)CCCCNC(=O)CCC(=O)N4)c[nH]c12 [compound 155] (CNT[Trp(7-Me)]LCY(Me2NCH2CH2)[2Nal][αMeLys(Me2)]KA[3Pal][Sar]-NH2; disulfide 1-6; linker N-10 via Suc) | 0.7 nM | 98% | 98% | 98% | 98% | 0.1 nM
6 | CC(=O)NCCCC[C@@H]1NC(=O)[C@H](Cc2c[nH]c3c(C)cccc23)NC(=O)[C@H]([C@@H](C)O)NC(=O)[C@H](CC(N)=O)NC(=O)[C@@H]2CSSC[C@H](NC1=O)C(=O)N[C@@H](Cc1ccc(OCCN(C)C)cc1)C(=O)N[C@@H](Cc1ccc3ccccc3c1)C(=O)N[C@@](C)(CCCCN(C)C)C(=O)N[C@H](C(=O)N[C@@H](CC(N)=O)C(=O)N[C@@H](Cc1cccnc1)C(=O)N(C)CC(N)=O)CCCCN(C)C(=O)CCC(=O)N2 [compound 156] (CNT[Trp(7-Me)]K(Ac)CY(Me2NCH2CH2)[2Nal][αMeLys(Me2)][Lys(Me)]N[3Pal][Sar]-NH2; disulfide 1-6; linker N-10 via Suc) | 0.61 nM | 99% | 99% | 97% | 100% | 0.08 nM
7 | CC(=O)NCCCC[C@@H]1NC(=O)[C@H](Cc2c[nH]c3c(C)cccc23)NC(=O)[C@H]([C@@H](C)O)NC(=O)[C@H](CC(N)=O)NC(=O)[C@@H]2CSSC[C@H](NC1=O)C(=O)N[C@@H](Cc1ccc(OCCN(C)C)cc1)C(=O)N[C@@H](Cc1ccc3ccccc3c1)C(=O)NC(C)(C)C(=O)N[C@H](C(=O)N[C@@H](CC(N)=O)C(=O)N[C@@H](Cc1cccnc1)C(=O)N(C)CC(N)=O)CCCCNC(=O)CCC(=O)N2 [compound 157] (CNT[Trp(7-Me)]K(Ac)CY(Me2NCH2CH2)[2Nal][Aib]KN[3Pal][Sar]-NH2; disulfide 1-6; linker N-10 via Suc) | 0.42 nM | 80% | 78% | 74% | 100% | 0.06 nM

Further lines, with some results ahead:

Row | IC50 [1] | remaining at 1 h, 1 µM (Pancreatin) | remaining at 2 h, 1 µM (Pancreatin) | remaining at 4 h, 1 µM (Pancreatin) | remaining at 1 h, 1 µM (Pepsin) | Structure (SMILES) | IC50 [2]
8 | 0.55 nM | 78% | 80% | 77% | 93% | CC(=O)NCCCC[C@@H]1NC(=O)[C@H](Cc2c[nH]c3c(C)cccc23)NC(=O)[C@@H](NC(C)=O)CCCCNC(=O)[C@@H]2CSSC[C@H](NC1=O)C(=O)N[C@@H](Cc1ccc(OCCN(C)C)cc1)C(=O)N[C@@H](Cc1ccc3ccccc3c1)C(=O)NC1(CCOCC1)C(=O)N[C@H](C(=O)N[C@@H](CC(N)=O)C(=O)N[C@@H](Cc1cccnc1)C(=O)N(C)CC(N)=O)CCCCNC(=O)CCC(=O)N2 [compound 105] (Ac-K[Trp(7-Me)]K(Ac)CY(Me2NCH2CH2)[2Nal][Thp]KN[3Pal][Sar]-NH2; linker 1-4-8 via X6) | 0.1 nM
9 | 0.65 nM | 76% | 76% | 74% | 90% | CC(=O)NCCCC[C@@H]1NC(=O)[C@H](Cc2c[nH]c3c(C)cccc23)NC(=O)[C@@H](NC(C)=O)CCCCNC(=O)[C@@H]2CSSC[C@H](NC1=O)C(=O)N[C@@H](Cc1ccc(OCCN(C)C)cc1)C(=O)N[C@@H](Cc1ccc3ccccc3c1)C(=O)N[C@@](C)(CC(C)C)C(=O)N[C@H](C(=O)N[C@@H](CC(N)=O)C(=O)N[C@@H](Cc1cccnc1)C(=O)N(C)CC(N)=O)CCCCNC(=O)CCC(=O)N2 [compound 106] (Ac-K[Trp(7-Me)]K(Ac)CY(Me2NCH2CH2)[2Nal][αMeL]KN[3Pal][Sar]-NH2; linker 1-4-8 via X6) | 0.13 nM
10 | 0.64 nM | 95% | 99% | 97% | 101% | CC(=O)NCCCC[C@@H]1NC(=O)[C@H](Cc2c[nH]c3c(C)cccc23)NC(=O)[C@@H](NC(C)=O)CCCCNC(=O)[C@@H]2CSSC[C@H](NC1=O)C(=O)N[C@@H](Cc1ccc(OCCN(C)C)cc1)C(=O)N[C@H](Cc1ccc3ccccc3c1)C(=O)N[C@@](C)(CCCCN(C)C)C(=O)N[C@H](C(=O)N[C@@H](CC(N)=O)C(=O)N[C@@H](Cc1cccnc1)C(=O)N(C)CC(N)=O)CCC(=O)NCCCCC(=O)N2 [compound 149] (Ac-K[Trp(7-Me)]K(Ac)CY(Me2NCH2CH2)[d2Nal][αMeLys(Me2)]EN[3Pal][Sar]-NH2; linker 1-4-8 via X1) | 0.04 nM
11 | 1.93 nM | 80% | 73% | 74% | 37% | CC(=O)N[C@H]1CCCCNC(=O)[C@@H]2CSSC[C@H](NC(=O)[C@H](CC(C)C)NC(=O)[C@H](Cc3c[nH]c4c(C)cccc34)NC1=O)C(=O)N[C@@H](Cc1ccc(OCCN(C)C)cc1)C(=O)N[C@@H](Cc1ccc3ccccc3c1)C(=O)N[C@@](C)(CC(C)C)C(=O)N[C@H](C(=O)N[C@@H](CC(N)=O)C(=O)N[C@@H](Cc1cccnc1)C(=O)N(C)CC(N)=O)CCCCNC(=O)CCC(=O)N2 [compound 158] (Ac-K[Trp(7-Me)]LCY(Me2NCH2CH2)[2Nal][αMeL]KN[3Pal][Sar]-NH2; linker 1-4-8 via X6) | 0.39 nM
